Reference: patent US20200282052A1, “A COMBINATION THERAPY WITH APATINIB FOR THE TREATMENT OF CANCER” (Elevar Therapeutics, Inc., priority 2017, published 2020)
Counter-ions that a name gives are not always drawn.

Assays:
[1] = system: mouse LL/2 lung carcinoma; test: LL/2 lung carcinoma syngeneic mouse model; assay type: in vivo; details: day 20; apatinib mesylate 300 mg/kg p.o. q.d., anti-muPD-1 antibody 10 mg/kg i.p. b.i.w.; C57BL/6 mice
Experimental: 40 female C57BL/6 mice purchased from Jackson Laboratories were enrolled on the study. Animals were housed for stabilization period. Animals were housed in individual HEPA ventilated cages (Innocage® IVC, Innovive USA). Fluorescent lighting was provided on a 12-hour cycle. Temperature and humidity was monitored and recorded daily and maintained to the maximum extent possible between 68-74° F. (20-23° C.) and 30-70% humidity, respectively. 2920×.10 18% soy irradiated rodent feed (Harlan) and autoclaved acidified water (pH 2.5-3) was provided ad libitum.
For inoculation, LL/2 cell viability was at 98%. Cryo vials containing LL/2 cells were thawed and prepared for injection into mice. On study day −3 cells were washed in PBS, counted, and re-suspended in cold PBS at concentrations of 250,000 viable cells/100 μL. Cell suspensions were mixed with PBS and kept on ice during transport to the vivarium. Cells for injections were prepared by withdrawing the PBS-cell mixture into a chilled 1 mL Lure-lok syringe fitted with a 26 7/8 G (0.5 mm×22 mm) needle. […]
Animals were monitored weekly for palpable tumors, or any changes in appearance or behavior. Once tumors were palpable, they were measured 3 times a week using calipers. Tumor volume was calculated using the following equation (longest diameter×shortest diameter 2)/2.
Body weight was measured at least three times a week. […]

[2] = biological target: c-SRC (Homo sapiens, UniProt P12931); details: cited from earlier work
[3] = biological target: VEGFR-2 (Homo sapiens, UniProt P35968); details: nonclinical studies; cited from earlier work
[4] = system: advanced or metastatic gastric cancer; details: cited from earlier work
[5] = system: tumor bearing animal models; details: cited from earlier work
[6] = biological target: c-Kit (Homo sapiens, UniProt P10721); details: cited from earlier work
[7] = healthy volunteers, cited from earlier work
[8] = in vivo; cited from earlier work
[9] = single dose, cited from earlier work

Chain of c-SRC (P12931 whole entry, species assumed): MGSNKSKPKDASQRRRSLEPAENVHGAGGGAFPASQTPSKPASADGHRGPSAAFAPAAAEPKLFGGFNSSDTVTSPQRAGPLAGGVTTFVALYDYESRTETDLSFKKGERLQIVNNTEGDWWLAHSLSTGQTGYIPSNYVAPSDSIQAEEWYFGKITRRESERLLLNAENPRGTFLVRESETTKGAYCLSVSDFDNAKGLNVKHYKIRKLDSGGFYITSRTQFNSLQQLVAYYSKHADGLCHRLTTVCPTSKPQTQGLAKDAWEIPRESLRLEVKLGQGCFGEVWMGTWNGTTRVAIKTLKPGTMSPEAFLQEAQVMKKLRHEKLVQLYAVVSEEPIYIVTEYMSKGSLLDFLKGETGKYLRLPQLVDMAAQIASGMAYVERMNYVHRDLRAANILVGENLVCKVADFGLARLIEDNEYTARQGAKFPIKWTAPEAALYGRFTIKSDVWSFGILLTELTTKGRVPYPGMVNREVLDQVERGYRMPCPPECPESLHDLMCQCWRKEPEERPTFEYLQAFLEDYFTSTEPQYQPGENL
Chain of VEGFR-2 (P35968 20-1356, species assumed): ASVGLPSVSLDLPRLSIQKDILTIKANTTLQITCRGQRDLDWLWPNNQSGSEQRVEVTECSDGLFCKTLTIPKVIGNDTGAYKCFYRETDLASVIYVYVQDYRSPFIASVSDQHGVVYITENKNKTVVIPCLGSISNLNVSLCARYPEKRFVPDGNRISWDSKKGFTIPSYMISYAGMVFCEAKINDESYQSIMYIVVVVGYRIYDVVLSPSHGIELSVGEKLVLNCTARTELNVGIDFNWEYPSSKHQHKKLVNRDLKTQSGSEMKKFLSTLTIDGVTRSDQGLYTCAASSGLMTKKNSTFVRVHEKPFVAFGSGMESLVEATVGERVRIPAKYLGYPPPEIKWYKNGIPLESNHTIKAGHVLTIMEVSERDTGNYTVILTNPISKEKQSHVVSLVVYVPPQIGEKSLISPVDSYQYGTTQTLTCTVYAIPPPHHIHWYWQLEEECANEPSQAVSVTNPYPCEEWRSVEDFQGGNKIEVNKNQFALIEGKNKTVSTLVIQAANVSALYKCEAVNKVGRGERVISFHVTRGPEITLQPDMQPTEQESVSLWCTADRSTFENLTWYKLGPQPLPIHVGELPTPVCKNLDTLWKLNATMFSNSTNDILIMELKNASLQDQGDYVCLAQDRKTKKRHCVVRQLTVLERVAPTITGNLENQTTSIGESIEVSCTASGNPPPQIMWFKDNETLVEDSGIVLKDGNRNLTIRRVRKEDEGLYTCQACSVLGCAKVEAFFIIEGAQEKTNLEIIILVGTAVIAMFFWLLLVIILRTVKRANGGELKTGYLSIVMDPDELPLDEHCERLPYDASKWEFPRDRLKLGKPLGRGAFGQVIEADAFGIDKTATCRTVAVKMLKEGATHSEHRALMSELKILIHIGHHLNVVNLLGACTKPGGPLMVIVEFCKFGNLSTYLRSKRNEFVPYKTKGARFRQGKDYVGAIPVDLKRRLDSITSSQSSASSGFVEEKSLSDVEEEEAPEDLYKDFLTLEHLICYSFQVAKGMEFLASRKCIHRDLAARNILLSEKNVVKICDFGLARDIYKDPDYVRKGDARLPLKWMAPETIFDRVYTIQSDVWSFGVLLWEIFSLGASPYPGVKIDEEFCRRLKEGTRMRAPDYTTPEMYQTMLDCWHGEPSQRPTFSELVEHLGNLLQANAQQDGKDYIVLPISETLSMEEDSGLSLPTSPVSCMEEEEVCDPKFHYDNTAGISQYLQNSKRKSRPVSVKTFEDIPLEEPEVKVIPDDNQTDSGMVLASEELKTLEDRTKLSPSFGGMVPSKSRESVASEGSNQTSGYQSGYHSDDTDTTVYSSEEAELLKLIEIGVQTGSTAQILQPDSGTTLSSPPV
Chain of c-Kit (P10721 26-976): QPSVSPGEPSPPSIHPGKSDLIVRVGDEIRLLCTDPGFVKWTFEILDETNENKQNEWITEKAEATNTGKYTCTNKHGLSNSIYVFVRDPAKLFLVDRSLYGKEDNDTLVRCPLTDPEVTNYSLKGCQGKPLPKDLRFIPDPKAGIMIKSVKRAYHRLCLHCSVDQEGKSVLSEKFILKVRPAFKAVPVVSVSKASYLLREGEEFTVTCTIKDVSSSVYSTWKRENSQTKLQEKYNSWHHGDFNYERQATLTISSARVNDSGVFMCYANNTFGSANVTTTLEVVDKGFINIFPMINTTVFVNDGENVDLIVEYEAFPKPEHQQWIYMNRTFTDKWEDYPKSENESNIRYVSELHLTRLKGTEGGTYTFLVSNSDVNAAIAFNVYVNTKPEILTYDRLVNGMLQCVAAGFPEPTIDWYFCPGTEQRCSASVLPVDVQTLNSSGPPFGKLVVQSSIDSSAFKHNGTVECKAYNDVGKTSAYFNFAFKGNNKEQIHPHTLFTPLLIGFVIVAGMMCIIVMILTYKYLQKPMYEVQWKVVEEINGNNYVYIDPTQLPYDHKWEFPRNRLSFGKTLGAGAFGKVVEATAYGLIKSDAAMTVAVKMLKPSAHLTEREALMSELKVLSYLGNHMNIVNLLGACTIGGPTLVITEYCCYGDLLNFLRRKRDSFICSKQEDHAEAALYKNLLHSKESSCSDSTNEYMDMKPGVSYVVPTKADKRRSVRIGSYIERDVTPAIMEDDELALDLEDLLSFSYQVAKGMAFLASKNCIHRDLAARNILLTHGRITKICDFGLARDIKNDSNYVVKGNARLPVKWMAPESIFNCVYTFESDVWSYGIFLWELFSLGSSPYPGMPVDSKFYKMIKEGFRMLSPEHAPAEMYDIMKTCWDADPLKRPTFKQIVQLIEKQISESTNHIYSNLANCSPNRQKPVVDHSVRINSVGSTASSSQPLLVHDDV

Compound	Safety Profile: Central nervous system [8]	Safety Profile: Liver/Bile [8]	Safety Profile: Musculoskeletal/bone [8]	Safety Profile: Renal [8]	Safety Profile: Heart [8]	also measured
N#CC1(c2ccc(NC(=O)c3cccnc3NCc3ccncc3)cc2)CCCC1 [Rivoceranib, N-[4-(1-cyanocyclopentyl)phenyl]-2-{[(pyridin-4-yl)methyl]amino} pyridine-3-carboxamide]						% Tumor growth inhibition [1]: 37%; inhibition of c-SRC tyrosine kinase [2]: mildly inhibits; binding to VEGFR-2 [3]: selectively binds; median overall survival (OS) compared to placebo ([4]; Phase 3): prolonged; median progression-free survival (PFS) compared to placebo ([4]; Phase 3): prolonged; patients with Grade ¾ adverse reactions ([4]; hypertension, HFS, proteinuria, fatigue, anorexia, and elevated aminotransferase): more than 2%; side effects in animals ([5]; at efficacious doses): minimal side effects; efficacy in various tumor bearing animal models ([5]; nonclinical studies): efficacious; inhibition of c-Kit tyrosine kinase [6]: mildly inhibits; food effects on the bioavailability ([7]; 81 mg rivoceranib dose): minimal; increase in bioavailability with food ([7]; 201 mg dose): 20-30%
Cc1nc(Nc2ncc(C(=O)Nc3c(C)cccc3Cl)s2)cc(N2CCN(CCO)CC2)n1 [Dasatinib]	R	R	R	R		
Cc1ccc(Nc2nccc(N(C)c3ccc4c(C)n(C)nc4c3)n2)cc1S(N)(=O)=O [Pazopanib]					R	
N#CC1(c2ccc(NC(=O)c3cccnc3NCc3ccncc3)cc2)CCCC1 [rivoceranib mesylate]						AUC0-∞ in Chinese and Japanese subjects compared to Caucasian subjects ([9]; healthy male): slightly higher; Cmax in Chinese and Japanese subjects compared to Caucasian subjects ([9]; healthy male): slightly higher; t1/2 ([9]; similar amongst Caucasian, Japanese and Chinese groups): 7.5 to 8 h
CNC(=O)c1cc(Oc2ccc(NC(=O)Nc3ccc(Cl)c(C(F)(F)F)c3)cc2)ccn1 [Sorafenib]	R	R	R	R	R	Safety Profile: GI [8]: R; Safety Profile: Lung airways [8]: R
CS(=O)(=O)CCNCc1ccc(-c2ccc3ncnc(Nc4ccc(OCc5cccc(F)c5)c(Cl)c4)c3c2)o1 [Lapatinib]	R				R	
C#Cc1cccc(Nc2ncnc3cc(OCCOC)c(OCCOC)cc23)c1 [Erlotinib]	R	R				Safety Profile: Blood/lymph system [8]: R
CCN(CC)CCNC(=O)c1c(C)[nH]c(/C=C2\C(=O)Nc3ccc(F)cc32)c1C [Sunitinib]	R	R			R	
Cc1cn(-c2cc(NC(=O)c3ccc(C)c(Nc4nccc(-c5cccnc5)n4)c3)cc(C(F)(F)F)c2)cn1 [Nilotinib]	R		R	R		Safety Profile: GI [8]: R; Safety Profile: Vascular [8]: R
